[2NH2-N] = 2'-deoxy-2'-amino ribonucleotide (N: the base); [invAb] = 3' inverted deoxyabasic cap; [I] = hypoxanthine (inosine); m = 2'-O-methyl; r = 2'-OH (RNA)
Tested on: plus strand HCV RNA
Type: biochemical, Hepatitis C virus
Conditions: plus strand (+) HCV site, 50 mM Tris-Cl, pH 8.0, 40 mM Mg2+ at 37°, trace substrate, enzymatic nucleic acid concentration of 500 nM or greater

Substance	% Substrate Cleaved in 3 hours [%]
22975 (UGGUGUAGGCTAGCTACAACGAGCGUUGAN; 3' inverted abasic cap (B); Description of Artificial Sequence: Nucleic Acid; misc_feature (30)..(30): n stands for inverted deoxyabasic derivative; misc_feature (1)..(7): 2'-O-Methyl; misc_feature (23)..(29): 2'-O-Methyl) [compound 22975]	75.77
22750 (AGAAGAAGCCGAAAGGCGAGUGAGGUCUACGAGGAN; 2'-O-methyl, 2'-amino and inverted abasic, amino positions listed inconsistently, further chemistry not given here) [compound 22750]	80.64
22719 (UGGAAGAUGAUGGCAUGCACUAUGCGCGACUGAGA; sugars from the 5' end mmmmmmmmrrrmmmmmrmmmmmmmmmrmmmmmmmm, [invAb] at 3' end, backbone not given here) [compound 22719]	69.88
22720 (GGAGAGGUGAUGGCAUGCACUAUGCGCGAUAUACA; sugars from the 5' end mmmmmmmmrrrmmmmmrmmmmmmmmmrmmmmmmmm, [invAb] at 3' end, backbone not given here) [compound 22720]	77.74
22721 (UCUAAGGUGAUGGCAUGCACUAUGCGCGACACGGU; sugars from the 5' end mmmmmmmmrrrmmmmmrmmmmmmmmmrmmmmmmmm, [invAb] at 3' end, backbone not given here) [compound 22721]	47.37

Tested on: minus strand HCV RNA
Type: biochemical, Hepatitis C virus
Conditions: minus strand (−) HCV site, 50 mM Tris-Cl, pH 8.0, 40 mM Mg2+ at 37°, trace substrate, enzymatic nucleic acid concentration of 500 nM or greater

Substance	% Substrate Cleaved in 3 hours [%]
22976 (AAGAGGAGGCTAGCTACAACGAGCGGCGAN; 3' inverted abasic cap (B); Description of Artificial Sequence: Nucleic Acid; misc_feature (30)..(30): n stands for inverted deoxyabasic derivative; misc_feature (1)..(7): 2'-O-Methyl; misc_feature (23)..(29): 2'-O-Methyl) [compound 22976]	66.06
22979 (AGGAGUAGGCTAGCTACAACGAGUGGAGGN; 3' inverted abasic cap (B); Description of Artificial Sequence: Nucleic Acid; misc_feature (30)..(30): n stands for inverted deoxyabasic derivative; misc_feature (1)..(7): 2'-O-Methyl; misc_feature (23)..(29): 2'-O-Methyl) [compound 22979]	85.53
22754 (AGGAGUAGCCGAAAGGCGAGUGAGGUCUGUGGAGG; 2'-O-methyl at 1, 2, 3, 4, 5, 6, 7, 8, 9, 10, 11, 12, 13, 14, 15, 16, [2NH2-N] at 17, 27, [invAb] at 3' end, other sugars and backbone not given here) [compound 22754]	50.40
22755 (CGAAGCAGCCGAAAGGCGAGUGAGGUCUAUGUGGA; 2'-O-methyl at 1, 2, 3, 4, 5, 6, 7, 8, 9, 10, 11, 12, 13, 14, 15, 16, [2NH2-N] at 17, 27, [invAb] at 3' end, other sugars and backbone not given here) [compound 22755]	81.10
22783 (UGUGCAGCUGAUGAGGCCGUUAGGCCGAANGAUGAA; 2'-O-methyl at 1, 2, 3, 4, 5, 6, 7, 15, 16, 17, 18, 19, 20, 21, 22, 23, 24, 25, 26, 31, 32, 33, 34, 35, 36, [I] at 30, [invAb] at 3' end, other sugars and backbone not given here) [compound 22783]	86.93
22951 (UGAGGAGCUGAUGAGGCCGUUAGGCCGAAACGUGGA; 2'-O-methyl at 1, 2, 3, 4, 5, 6, 7, 15, 16, 17, 18, 19, 20, 21, 22, 23, 24, 25, 26, 31, 32, 33, 34, 35, 36, [invAb] at 3' end, other sugars and backbone not given here) [compound 22951]	83.25
